# Measurements as given in patent publication US8008074B2, “Compositions and methods for improving bone mass through modulation of receptors of PTH and fragments thereof” (The UAB Research Foundation, priority 2006, dated 2011).
# What was measured:
# LRP5/6 = experiment: Immunostaining of phosphorylated PPPSP motif of LRP5/6 in rat trabecular bone; type: in vivo; details: rats, single PTH injection
# Method: To further examine whether LRP5/6 mediates PTH-elevated β-catenin levels in vivo, trabecular bone sections were immunostained with the antibody against phosphorylated PPPSP motif. Formalin-fixed tissue sections of 5 μm thickness were deparaffinized in xylene and rehydrated in graded alcohols. Antigen retrieval was achieved by incubating tissue sections in boiling 10 mmol/L citrate buffer (pH 6.0) for 5 minutes in a microwave oven. All sections were then incubated with hydrogen peroxide for 5 minutes. Subsequently, sections were incubated with the primary antibodies against β-catenin or LRP6 1490 for 1 hour at room temperature. After rinsing the primary antibody in T-PBS, antibody detection was accomplished using the Super Sensitive biotin-streptavidin horseradish peroxidase detection kit (Biogenex, San Ramon, Calif.). The diaminobenzidine tetrachloride Super Sensitive substrate kit (Biogenex, San Ramon, Calif.) was used to visualize the antibody-antigen complex. The sections were then counterstained with hematoxylin. Appropriate negative controls, consisting of tissue sections of each case processed without the addition of primary antibody, were prepared along with positive multitissue control sections. Only those cases with greater than 10% immunohistochemical stains were considered as positive. Assessment of the immunohistochemical staining was performed independently by two pathologists. Contrasting results were discussed until an agreement was reached.
# The pattern of phosphorylated LRP5/6 was correlated with the changes of β-catenin levels induced by PTH in Rat osteoblasts.
# [1] = molecular target: T1, TGFβRII/PTH1R interaction (Homo sapiens, UniProt P37173+Q03431); experiment: Co-immunoprecipitation of TGFβRII and PTH1R in 293 cells; type: cell-based; details: cotransfected HEK293 cells; 10% FBS medium; PTH stimulation
# T1 construct: The 293T cells endogenously expressed TGFβRII; endogenous in cells; host or cells: 293T
# T1 sequence (Q03431 27-593): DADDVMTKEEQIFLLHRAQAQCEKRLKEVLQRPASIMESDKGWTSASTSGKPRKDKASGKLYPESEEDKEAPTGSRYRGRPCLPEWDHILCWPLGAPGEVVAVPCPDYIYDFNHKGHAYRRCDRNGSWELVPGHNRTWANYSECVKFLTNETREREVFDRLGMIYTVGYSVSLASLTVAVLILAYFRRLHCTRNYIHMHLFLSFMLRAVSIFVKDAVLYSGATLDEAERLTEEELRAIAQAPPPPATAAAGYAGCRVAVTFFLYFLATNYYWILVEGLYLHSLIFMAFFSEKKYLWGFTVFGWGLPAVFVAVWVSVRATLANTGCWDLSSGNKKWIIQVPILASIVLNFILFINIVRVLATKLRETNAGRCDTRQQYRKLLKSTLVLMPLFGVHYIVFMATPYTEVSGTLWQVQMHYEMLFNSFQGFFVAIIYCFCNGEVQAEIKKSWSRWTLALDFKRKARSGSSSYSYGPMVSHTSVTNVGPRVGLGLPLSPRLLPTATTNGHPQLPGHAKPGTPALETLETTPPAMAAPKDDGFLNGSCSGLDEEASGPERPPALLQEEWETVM
# T1 sequence (P37173 23-567): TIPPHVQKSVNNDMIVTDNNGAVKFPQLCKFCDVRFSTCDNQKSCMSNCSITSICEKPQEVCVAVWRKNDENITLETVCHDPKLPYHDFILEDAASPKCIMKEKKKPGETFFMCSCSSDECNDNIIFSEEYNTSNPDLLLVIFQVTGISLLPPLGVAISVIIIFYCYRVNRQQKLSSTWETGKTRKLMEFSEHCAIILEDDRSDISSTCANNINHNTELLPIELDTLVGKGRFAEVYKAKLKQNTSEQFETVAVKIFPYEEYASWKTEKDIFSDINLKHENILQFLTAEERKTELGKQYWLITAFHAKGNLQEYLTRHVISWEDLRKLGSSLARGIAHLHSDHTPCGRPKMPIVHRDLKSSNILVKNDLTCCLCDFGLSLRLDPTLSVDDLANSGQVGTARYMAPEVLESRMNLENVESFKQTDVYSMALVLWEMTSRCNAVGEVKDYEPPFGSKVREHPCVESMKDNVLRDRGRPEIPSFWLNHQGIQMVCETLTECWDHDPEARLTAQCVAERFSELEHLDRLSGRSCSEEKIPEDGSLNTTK
# Method: Human embryonic kidney 293T cells in DMEM with 10% serum were treated with vehicle (water), TGF-β (2 ng/ml), or PTH (1-34) (50 nM) for 24 hours. The 293T cells endogenously expressed TGFβRII. The cells were cultured in DMEM with 10% serum and were split at 30%-40% confluent.
# Immunoprecipitation assays were performed as described previously (Shi et al., 2004, J. Cell. Biol. 164:291-300). TGFβRII was immunoprecipitated from the cell extracts using anti-TGFβRII antibody (Santa Cruz Biotechnology, Inc.; 1:250 dilution), and the immunocomplex was detected by Western blotting with an antibody specific for PTH1R (Santa Cruz Biotechnology, Inc.; 1:200 dilution) to detect PTH1R protein. […] Furthermore, the interaction of PTH1R with TGFβRII can be in the form of monomers or dimers.
# Next, the interaction was examined using a biochemical approach. PTH1R-HA was contransfected in HEK293 cells with Flag-TβRII. The cell lysate was subjected to HA immunoprecipitation, and associated TβRII was immunoblotted with anti-Flag antibody. TβRII specifically coprecipitated with PTH1R (FIG. 11) in 10% FBS medium, and the interaction was enhanced by PTH stimulation, whereas the kinase-dead mutant of TβRII lost the interaction with PTH1R (data not shown) even with treatment of PTH. The interaction of endogenous PTH1R and TβRII was also examined. […]
# LRP5/Axin binding = experiment: Axin-LRP5 binding immunoprecipitation; type: cell-based; details: significantly induced at 30 minutes; data not shown
# Text: If the observation is true, then the phosphorylated PPPSP motif will serve as an Axin docking site.
# GSK3β is involved in PTH-stimulated LRP6 phosphorylation at its PPPSP motifs. However, the phosphorylation of LRP5 by PTH was very strong and seems GSK3β-unrelated. Since LRP6N, the extracellular domain with transmembrane region, functions as dominant-negative, we examined whether it inhibits PTH-induced Axin binding with LRP5/6.
# LRP6/Axin binding = experiment: Axin-LRP6 binding immunoprecipitation assay; type: cell-based; details: without added GSK3β; data not shown
# β-catenin = β-catenin protein levels in HEK293 cells; type: cell-based; details: different concentrations and time points
# Method: In parallel, proteins from cytosolic and nuclear fractions were isolated from the UMR 106 cells after a 30 minute treatment with control medium, Wnt-3a conditioned medium, or 5×10^−7 M PTH (1-84). The proteins were transferred to a blotting membrane, and the immunoblots were stained with an anti-β-catenin antibody or antibody to a control protein (α-tubulin or histone). […] Moreover, cytosolic and nuclear β-catenin protein levels also were examined in embryonic kidney epithelial cells (HEK293) that were treated with different concentrations of PTH and harvested at different time points.
# TGFβ/Smad signaling = TGFβ/Smad signaling after PTH pretreatment; type: cell-based
# Method: Panel B is a graph showing the decrease in activity from the SBE-luciferase reporter in the presence of PTH and PTH1R.
# It has been reported that TGFβ-induced endocytosis of TGFβ/TβRII is mediated by Sara endosome. The response of TβRII to PTH was analyzed to determine whether it is the same as to TGFβ. […] The observation was confirmed by TGFβ-induced interaction between Smad2 and Smad4.
# TGFβRII = molecular target: T2, TGFβRII (Homo sapiens, UniProt P37173+Q03431); experiment: TGFβRII internalization in HEK293-PTH1R cells; type: cell-based; details: stimulated with PTH for 30 minutes; 90% before stimulation
# T2 construct: expressed in transfected cells; host or cells: HEK293-PTH1R (HEK293 stably expressing HA-PTH1R)
# T2 sequence (P37173 23-567): as above
# T2 sequence (Q03431 27-593): as the sequence (Q03431 27-593) above
# Method: TGFβRII tagged with Flag epitope was expressed in HEK293 cells that were expressing PTH1R or not, and the transfected cells were treated with PTH or control.
# In particular, TGFβ1 treatment increases the number of cell membrane PTH1R. Therefore, the potential functional relationship of PTH with TGFβRII was examined. TGFβRII tagged with Flag epitope was transiently expressed in embryonic kidney 293 (HEK293) cells or HEK293 cells stably expressing PTH1R with HA (HEK293-PTH1R). In the absence of PTH, TGFβRII was present predominantly at the cell surface, with a few puncta in the cytosol (data not shown). […] To visualize the effect of PTH to the TβRII, a red fluorescent PTH (1-34) was synthesized in which the TMR fluorophore was attached to the side chain of the lysine residue at position 13 in PTH (1-34) (PTH^TMR).
# To quantitate these observations, the cells were fixed at various time points and classified as three types: (1) TGFβRII is dominantly present at the cell surface, (2) TGFβRII locates to both the cell surface and vesicles in the cytosol, and (3) TGFβRII mainly localizes to the cytosol as vesicles. Before stimulation with PTH, TGFβRII was present at the cell surface in 90% of the cells. […] From 10 to 30 minutes after stimulation with PTH (1-34), cell-surface TβRII levels were reduced, indicative of receptor clearance from the cell surface membrane (FIG. 10B). […]
substance,measurement,setting,value
"PTH: Parathyroid hormone ligand, form not stated at the place; figure legends give PTH (1-84) or PTH (1-34)",peak of LRP5/6 phosphorylation after PTH injection,LRP5/6,8 h
same,start of LRP5/6 phosphorylation after PTH injection,LRP5/6,2 h
same,LRP5/6 phosphorylation at 24 hours,LRP5/6; 24 hours,disappearing
same,phosphorylation of LRP5/6 in preosteoblasts/osteoblasts at the surface of trabecular bone,LRP5/6; data not shown,enhanced phosphorylation of LRP5/6
same,total LRP5/6 protein level in osteoblasts of rat tibia bone,LRP5/6; data not shown,remained unchanged
same,interaction of PTH1R-HA with Flag-TβRII,[1],enhanced
same,binding of Axin to LRP5,LRP5/Axin binding,induced binding of Axin to LRP5
same,"Axin/LRP6 binding, PTH alone",LRP6/Axin binding,undetectable
same,cytosolic and nuclear β-catenin protein levels,β-catenin,stimulates protein levels of β-catenin in both the cytoplasm and the nucleus in a concentration and time dependent manner
same,phosphorylation of Smad2 by TGFβ after PTH pretreatment,TGFβ/Smad signaling; C2C12 cells pretreated with PTH,largely inhibited
same,inhibition by PTH1R of TGFβ activation of SBE luciferase reporter,TGFβ/Smad signaling; cells expressing PTH1R,enhanced the inhibition
same,TGFβ-induced interaction between Smad2 and Smad4,TGFβ/Smad signaling; pretreatment with PTH,inhibits the interaction
same,cells exhibiting cell-surface localization of TGFβRII,TGFβRII,less than 10%
